# Data as given in patent US6482411B1, “Methods of reducing bone loss with CD40 ligand” (Board of Regents, The University of Texas System, priority 1999, dated 2002).
# Marks after values point to notes of the source that are not given here.
# Experiments:
# [1] = cited from earlier work
# [2] = test system: MLO-Y4 osteocytic cell line; assay: Trypan blue exclusion (cell death) in MLO-Y4 cells; type: cell-based, murine; settings: CD40L pretreatment 15 min where given, then dexamethasone 10^-6 M (10^-7 M earlier), TNFα or etoposide 50 μM for 6 h
# Experimental: The MLO-[…][…] (0.5-1.5 μg/ml) for 15 mins. followed by treatment with either dexamethasone at 10^-6 M (10^-7M in earlier studies), TNFα at 1 ng/ml or etoposide at 50 μM for 6 hrs. […] Trypan Blue Exclusion: Staining of cultured cells with vital dyes such as trypan blue is commonly used approach to quantify cell death. This is based on the premise that viable cells with intact membranes will exclude specific dyes such as trypan blue, which can easily be quantified under light microscopy ([…], 1998). The percentage of trypan blue positive cells in each culture condition was used to calculate cell survival. This method is […] for screening multiple samples or treatment conditions, but can underestimate cell death since membrane integrity can be intact until late in apoptosis. Trypan vital dye staining is not specific for apoptosis and will also stain necrotic cells. This was confirmed by additional analysis discussed below. Apoptosis of MLO-Y4 or calvaria cells was quantified by trypan blue staining (Jilka et al., 1998). Nonadherent cells were combined with adherent cells released from the culture dish using trypsin-EDTA, resuspended in medium containing serum, and collected by centrifugation. […] At least 100 cells per condition were counted. Trypan vital dye staining is not specific for apoptosis and will also stain necrotic cells. […]
# MLO-Y4 cells = assay: FACS staining for Annexin V/propidium iodide in MLO-Y4 cells; type: cell-based, murine; settings: CD40L pretreatment 15 min where given, then dexamethasone or TNFα for 6 h
# Experimental: (§1) The MLO-Y4 cells were pretreated with CD40L (0.5-1.5 μg/ml) for 15 mins. followed by treatment with either dexamethasone at 10^−6 M (10^−7M in earlier studies), TNFα at 1 ng/ml or etoposide at 50 μM for 6 hrs. The cells were cultured in 2.5% FBS/2.5% CS in α-MEM, 5% CO2, 37° C.
# FACS Staining for Annexin V/Propidium Iodide: In early stages of apoptosis the cells lose membrane asymmetry and translocate the membrane phospholipid phosphatidylserine to the outer leaflet of the plasma membrane, where it can be detected by its high affinity binding to annexin V (Rillema, 1998). Annexin V is a calcium-dependent phospholipid-binding protein that has a high affinity for phosphatidylserine. Prolonged apoptosis can cause cell death and these non-viable cells stain positive for vital dye Propidium Iodide (PI) as well as Annexin V. Apoptotic cells stain Annexin V positive and Propidium iodide negative.
# The staining protocol includes washing single cell suspension twice with PBS and resuspending in 1×binding buffer (0.1 M HEPES/NaOH, pH 7.4; […]; 25 mM CaCl2) at a concentration of one million cells/ml. The cells are aliquoted (100 μl) in polypropylene tubes, incubated with annexin V FITC (5 μl) and propidium iodide (10 μl) for 15 minutes at 4° C. in the dark, and analyzed by flow cytometry within 1 hour. […]
# [3] = test system: MLO-Y4 cells stably transduced with nuclear GFP; assay: GFP nuclear stain apoptosis assay in MLO-Y4 cells; type: cell-based, murine; settings: CD40L pretreatment 15 min where given, then dexamethasone, TNFα or etoposide 50 μM for 6 h
# Experimental: as §1
# GFP Nuclear Stain: Visualization of morphological features of apoptosis in the nucleus of the cells, such as chromatin condensation and nuclear fragmentation, was determined in this assay. During apoptosis the nucleus becomes shrunken and pyknotic as a result of DNA degradation. MLO-Y4 cells were stably transduced with a retroviral vector carrying the green fluorescent protein (GFP) CDNA with a nuclear localization sequence designed to target the GFP to the nucleus (Plotkin et al., 1998). […] At least 500 cells from fields selected by systematic random ampling were examined for each condition (Plotkinn et al., 1999; Jilka et al., 1999).
# [4] = approximately 2,000 women randomized; cited from earlier work
Compound,"Trypan Blue, percent positive cells (dead) [2] [%]","GFP, percent positive cells (apoptotic) [3]",also measured
O=C(c1ccc(OCCN2CCCCC2)cc1)c1c(-c2ccc(O)cc2)sc2cc(O)ccc12 [raloxifene],,,"proportion of women reporting hot flashes ([1]; 60 mg raloxifene daily, placebo 22.7%, no significant difference): 26.3%; endometrial proliferation ([1]; over 600 menopausal women): without inducing endometrial proliferation"
"C[C@@H]1C[C@H]2[C@@H]3CCC4=CC(=O)C=C[C@]4(C)[C@@]3(F)[C@@H](O)C[C@]2(C)[C@@]1(O)C(=O)CO [Dex, dexamethasone]",13.7 ± 1.4,24.0* percent,"Annexin V, percent positive cells (apoptotic) (MLO-Y4 cells): 23.7 ± 1.6%"
"COc1cc([C@@H]2c3cc4c(cc3[C@@H](O[C@@H]3O[C@@H]5CO[C@@H](C)O[C@H]5[C@H](O)[C@H]3O)[C@H]3COC(=O)[C@H]23)OCO4)cc(OC)c1O [Etoposide, etoposide]",15.8 ± 2.0,15.9* percent,
NCCCC(O)(P(=O)(O)O)P(=O)(O)O [alendronate],,,women with vertebra fractures versus placebo [4]: significantly fewer
